These results are taken from patent publication US10981932B2, “Macrocyclic indole derivatives” (Bayer Aktiengesellschaft, priority 2016, dated 2021).

SMILES strings stand for the structures. Structures can show the parent of a compound that is named as a salt.

One data set addresses MCL-1 (Homo sapiens, UniProt Q07820). As to the kind of experiment: Protein-protein interaction assay MCL-1/Noxa BH3 peptide (MCL-1 assay), TR-FRET. Type of data set: binding. To be noted: MBP-MCL-1 / Noxa BH3-derived peptide, median. The gist of the method:
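MBP-MCL-1 (1 nM final) was preincubated 10 min at 22 °C with compounds (11 concentrations, 0.1 nM–20 μM, duplicates) in Tris pH 7 buffer with NaCl, KF, Tween-20, DTT and BGG. After 1 h at 22 °C in the dark plus overnight at 4 °C, anti-MBP Eu-cryptate/streptavidin-XL665 TR-FRET was read; IC50 came from a 4-parameter fit.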
A general note: In TR-FRET formats the signal depends on donor and acceptor labels being close together.

Data set [1] has as its system SUDHL5. The data set can be described thus: Induction of caspase-3/7 activity (Caspase-Glo 3/7), SUDHL5. To be noted: caspase-3/7 induction, SUDHL5 cells, 3 h treatment; median. Type of data set: cell-based. Put shortly:
(§1)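 Caspase-Glo 3/7 luminescence measured after 3 h compound exposure at 37 °C in SUDHL10 and SUDHL5 cells. EC50 values come from background-corrected signals, with curve bottom set to 1 and plateau set to maximal induction by the reference compound.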

Data set [2] deals with SUDHL10. The data set can be described thus: Induction of caspase-3/7 activity (Caspase-Glo 3/7), SUDHL10. The format is cell-based. The following applies: caspase-3/7 induction, SUDHL10 cells, 3 h treatment; median. Put shortly:
as §1

Data set [3] relates to SUDHL5. As to the kind of experiment: Anti-proliferative effect (CellTiter-Glo, 72 h), SUDHL5. The format is cell-based. To be noted: SUDHL5 cells, antiproliferation, 72 h incubation, median, read-out: Antiproli SUDHL5 [M] (median). The gist of the method: (§2)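 CellTiter-Glo luminescence readout of viability, taken on a time-zero plate at day 0 and on treated plates after 72 h incubation at 37 °C in a humidified incubator. Reagent incubation 10 min before reading.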
Background: ATP-based viability assays read luminescence as a measure of living cells.

In data set [4] the test system is SUDHL10. The data set can be described thus: Anti-proliferative effect (CellTiter-Glo, 72 h), SUDHL10. To be noted: SUDHL10 cells, antiproliferation, 72 h incubation, median, read-out: Antiproli SUDHL10 [M] (median). The format is cell-based. Put shortly:
as §2

The subject of another data set is A2780. The data set can be described thus: Anti-proliferative effect (CellTiter-Glo, 72 h), A2780. Type of data set: cell-based. The following applies: A2780 cells, median, read-out: IC50 antiproliferation assay A2780 [M] (median). Put shortly: as §2
In data set [5] the test system is SUDHL5. The data set can be described thus: Induction of cytotoxicity (CellTiter-Glo, 5 h), SUDHL5. The following applies: read-out: Cytotox SUDHL5 [M] (median); SUDHL5 cells, cytotoxicity induction, CellTiter-Glo, 5 h incubation, median.
For data set [6], the system named is SUDHL10. The data set can be described thus: Induction of cytotoxicity (CellTiter-Glo, 5 h), SUDHL10. To be noted: read-out: Cytotox SUDHL10 [M] (median); SUDHL10 cells, cytotoxicity induction, CellTiter-Glo, 5 h incubation, median.

Chain of MCL-1 (Q07820 whole entry): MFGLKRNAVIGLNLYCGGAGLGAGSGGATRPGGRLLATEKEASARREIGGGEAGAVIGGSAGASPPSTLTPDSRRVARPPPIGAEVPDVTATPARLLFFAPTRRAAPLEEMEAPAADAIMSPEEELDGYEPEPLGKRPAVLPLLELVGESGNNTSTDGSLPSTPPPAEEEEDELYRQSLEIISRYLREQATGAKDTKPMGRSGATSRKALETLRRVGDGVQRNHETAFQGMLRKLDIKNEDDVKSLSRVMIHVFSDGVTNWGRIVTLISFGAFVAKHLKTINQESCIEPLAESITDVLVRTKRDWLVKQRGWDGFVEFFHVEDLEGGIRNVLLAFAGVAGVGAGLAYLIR

As for `Cc1ccc2c(CCCOc3cccc4ccccc34)c(C(=O)O)n3c2c1-c1c(nn(C)c1C)COCCCC3` (single isomer, unassigned; enantiomer 2) [Example 077, 2,3,4-trimethyl-7-[3-(naphthalen-1-yloxy)propyl]-2,10,11,12,13,15-hexahydropyrazolo[4′,3′:9,10][1,6]oxazacycloundecino[8,7,6-hi]indole-8-carboxylic Acid (Enantiomer 2)], the IC50 is 0.0342 µM on MCL-1; 2.73e-05 M in the data set with SUDHL5 [3]; 1.17e-05 M in the data set on SUDHL10 [4]; 2.06e-05 M with A2780; greater than 3.3e-05 M with SUDHL5 [5]; greater than 3.3e-05 M with SUDHL10 [6]. Further, the half-maximal effective concentration (EC50) in the data set on SUDHL5 [1] and in the data set with SUDHL10 [2] was greater than 33 µM each time.

In the case of `CCn1nc2c(c1C1CC1)-c1cccc3c(CCCOc4cccc5ccccc45)c(C(=O)O)n(c13)CCCCOC2` (single isomer, unassigned; enantiomer 2) [Example 083, 3-cyclopropyl-2-ethyl-7-[3-(naphthalen-1-yloxy)propyl]-2,10,11,12,13,15-hexahydropyrazolo[4′,3′:9,10][1,6]oxazacycloundecino[8,7,6-hi]indole-8-carboxylic acid-N-ethylethanamine Salt (Enantiomer 2)], the IC50 was 0.172 µM on MCL-1; 2.68e-05 M with SUDHL5 [3]; 1.47e-05 M in the data set with SUDHL10 [4]; 1.38e-05 M in the data set on A2780; greater than 3.3e-05 M in the data set with SUDHL5 [5]; greater than 3.3e-05 M with SUDHL10 [6]. The EC50 in the data set on SUDHL5 [1] and in the data set with SUDHL10 [2] was greater than 33 µM in each case.

Consider `COCCn1nc2c(c1C1CC1)-c1cccc3c(CCCOc4cccc5ccccc45)c(C(=O)O)n(c13)CCCCOC2` (single isomer, unassigned; enantiomer 2) [Example 086, 3-Cyclopropyl-2-(2-methoxyethyl)-7-[3-(naphthalen-1-yloxy)propyl]-2,10,11,12,13,15-hexahydropyrazolo[4′3′:9,10][1,6]oxazacycloundecino[8,7,6-hi]indole-carboxylic acid-N-ethylethanamine Salt (Enantiomer 2)], for which the IC50 against MCL-1 was 0.0728 µM; with SUDHL5 [3], 1.72e-05 M; in the data set on SUDHL10 [4], 7e-06 M; with A2780 it was 1.36e-05 M; with SUDHL5 [5], 3.15e-05 M; in the data set with SUDHL10 [6], greater than 3.3e-05 M. The EC50 in the data set with SUDHL5 [1] and with SUDHL10 [2] was greater than 33 µM in each case.

For `Cc1c2c(nn1C1CC1)COCCCCn1c(C(=O)O)c(CCCOc3cccc4ccccc34)c3cccc-2c31` (single isomer, unassigned; enantiomer 2) [Example 094, 2-cyclopropyl-3-methyl-7-[3-(naphthalen-1-yloxy)propyl]-2,10,11,12,13,15-hexahydropyrazolo[4′,3′:9,10][1,6]oxazacycloundecino[8,7,6-hi]indole-8-carboxylic acid-N-ethylethanamine Salt (Enantiomer 2)], the IC50 against MCL-1 was 0.12 µM; with SUDHL5 [3] it was 3.11e-05 M; in the data set with SUDHL10 [4] it was 1.64e-05 M; in the data set on A2780 it was 2.58e-05 M; in the data set on SUDHL5 [5], greater than 3.3e-05 M; in the data set with SUDHL10 [6], greater than 3.3e-05 M. Further, the concentration for a half-maximal effect (EC50) with SUDHL5 [1] and with SUDHL10 [2] was greater than 33 µM throughout.

For the compound `Cc1nn(CCN2CCOCC2)c2c1-c1cccc3c(CCCOc4cccc5ccccc45)c(C(=O)O)n(c13)CCCCOC2` (single isomer, unassigned; enantiomer 2) [Example 097, 3-methyl-1-[2-(morpholin-4-yl)ethyl]-7-[3-(naphthalen-1-yloxy)propyl]-1,10,11,12,13,15-hexahydropyrazolo[4′,3′:9,10][1,6]oxazacycloundecino[8,7,6-hi]indole-carboxylic acid-N-ethylethanamine Salt (Enantiomer 2)], the IC50 against MCL-1 is 0.0589 µM; in the data set with SUDHL5 [3] it was 2.25e-05 M; in the data set on SUDHL10 [4] it was 1.21e-05 M; with A2780, 2.84e-05 M; in the data set on SUDHL5 [5] it was 3.05e-05 M; with SUDHL10 [6] it was greater than 3.3e-05 M. For the same compound, the concentration for a half-maximal effect (EC50) in the data set on SUDHL5 [1] and with SUDHL10 [2] was greater than 33 µM in each case.

As for `COCCn1nc(C2CC2)c2c1COCCCCn1c(C(=O)O)c(CCCOc3cccc4ccccc34)c3cccc-2c31` (single isomer, unassigned; enantiomer 2) [Example 104, 3-cyclopropyl-1-(2-methoxyethyl)-7-[3-(naphthalen-1-yloxy)propyl]-1,10,11,12,13,15-hexahydropyrazolo[4′,3′:9,10][1,6]oxazacycloundecino[8,7,6-hi]indole-8-carboxylic acid-N-ethylethanamine Salt (Enantiomer 2)], the IC50 on MCL-1 was 0.106 µM; with SUDHL5 [3], 2e-05 M; in the data set with SUDHL10 [4], 1.02e-05 M; in the data set with A2780 it was 2.21e-05 M; in the data set with SUDHL5 [5], greater than 3.3e-05 M; in the data set on SUDHL10 [6], greater than 3.3e-05 M. Moreover, the EC50 in the data set with SUDHL5 [1] and in the data set with SUDHL10 [2] was greater than 33 µM throughout.

As for `COCCn1nc2c(c1C)-c1cccc3c(CCCOc4cccc5ccccc45)c(C(=O)O)n(c13)CCCCOC2` (single isomer, unassigned; enantiomer 2) [Example 108, 2-(2-methoxyethyl)-3-methyl-7-[3-(naphthalen-1-yloxy)propyl]-2,10,11,12,13,15-hexahydropyrazolo[4′,3′:9,10][1,6]oxazacycloundecino[8,7,6-hi]indole-8-carboxylic acid-N-ethylethanamine Salt (Enantiomer 2)], the IC50 against MCL-1 was 0.0543 µM; with SUDHL5 [3] it was 1.51e-05 M; with SUDHL10 [4] it was 1.17e-05 M; with A2780 it was 1.52e-05 M; with SUDHL5 [5], greater than 3.3e-05 M; with SUDHL10 [6], greater than 3.3e-05 M. Moreover, the EC50 in the data set with SUDHL5 [1] and in the data set on SUDHL10 [2] was greater than 33 µM each time.

Regarding `Cc1nn(CC(F)(F)F)c2c1-c1cccc3c(CCCOc4cccc5ccccc45)c(C(=O)O)n(c13)CCCCOC2` (single isomer, unassigned; enantiomer 2) [Example 111, 3-methyl-7-[3-(naphthalen-1-yloxy)propyl]-1-(2,2,2-trifluoroethyl)-1,10,11,12,13,15-hexahydropyrazolo[4′,3′:9,10][,6]oxazacycloundecino[8,7,6-hi]indole-8-carboxy ic acid-N-ethylethanamine Salt (Enantiomer 2)], the IC50 on MCL-1 is 0.327 µM; with SUDHL5 [3] it was greater than 3.3e-05 M; with SUDHL10 [4], 5.45e-06 M; in the data set on A2780 it was 2.61e-05 M; with SUDHL5 [5], greater than 3.3e-05 M; in the data set with SUDHL10 [6] it was greater than 3.3e-05 M. For the same compound, the concentration for a half-maximal effect (EC50) in the data set on SUDHL5 [1] and in the data set on SUDHL10 [2] was greater than 33 µM in each case.

As for `Cn1nc(CN2CCOCC2)c2c1COCC=CCn1c(C(=O)O)c(CCCOc3cccc4ccccc34)c3cccc-2c31` (single isomer, unassigned; enantiomer 2) [Example 134, (E)-1-methyl-3-(morpholin-4-ylmethyl)-7-[3-(naphthalen-1-yloxy)propyl]-1,13,15-tetrahydropyrazolo[4′,3′:9,10][1,6]oxazacycloundecino[8,7,6-hi]indole-8-carboxylic acid-N-ethylethanamine Salt (Enantiomer 2)], the IC50 is 0.322 µM against MCL-1; 2.14e-05 M in the data set on SUDHL5 [3]; 1.63e-05 M in the data set with SUDHL10 [4]; 2.07e-05 M in the data set on A2780; greater than 3.3e-05 M in the data set with SUDHL5 [5]; greater than 3.3e-05 M in the data set on SUDHL10 [6]. In addition, the EC50 in the data set with SUDHL5 [1] and in the data set with SUDHL10 [2] was greater than 33 µM in each case.

With `CCc1c2c(nn1C)CN(C)CCCn1c(C(=O)O)c(CCCOc3cccc4ccccc34)c3ccc(C)c-2c31` (single isomer, unassigned; enantiomer 2) [Example 146, 11-Ethyl-7,10,12-trimethyl-1-[3-(1-naphthyloxy)propyl]-4,5,6,7,8,10-hexahydropyrazolo[3′,4′:7,8][1,5]diazecino[9,10,1-hi]indole-2-carboxylic acid-N-ethylethanamine Salt (Enantiomer 2)], the IC50 at MCL-1 came to 0.00901 µM; in the data set with SUDHL5 [3] it was 1.93e-05 M; in the data set on SUDHL10 [4], 1.05e-05 M; in the data set on A2780 it was 1.37e-05 M; with SUDHL5 [5] it was 1.66e-05 M; in the data set with SUDHL10 [6], 2.67e-05 M. Also, the EC50 in the data set on SUDHL5 [1] and in the data set with SUDHL10 [2] was greater than 33 µM in each case.

One may read the EC50 as the concentration needed to bring the measured effect to its halfway point. The low end stands for an effect from little substance, the high end for a need for much substance.
